Data set [1] is described as follows: AUC (0 to t) in Sprague-Dawley rat at 10 mg/kg, po. The data set is classed as ADME, organism-based. On the set-up: dose 10 mg/kg, route oral. The note with it: plasma.
Data set [2] is described as follows: Tmax in Sprague-Dawley rat at 10 mg/kg, po. On the set-up: dose 10 mg/kg, route oral. In kind it is ADME, organism-based. The note with it: in vivo.
In data set [3] the test system is Rattus norvegicus. As to the kind of experiment: Volume of distribution in Sprague-Dawley rat at 10 mg/kg, po. In kind it is ADME, organism-based. On the set-up: dose 10 mg/kg, route oral. The note with it: in vivo.
The subject of data set [4] is Plasmodium yoelii. As to the kind of experiment: Antimalarial activity against chloroquine-resistant Plasmodium yoelii N-67 infected in Swiss mouse assessed as mean survival time at 50 mg/kg, ip qd for 4 days. The data set is classed as functional. The note with it: route intraperitoneal.
In data set [5] the test system is Plasmodium falciparum. Kind of data set: Antimalarial activity against chloroquine-resistant Plasmodium falciparum K1 after 72 hrs by MSF assay. In kind it is functional, organism-based. The note with it: K1, 72 h.
Data set [6] is described as follows: Clearance in Sprague-Dawley rat at 10 mg/kg, po. In kind it is ADME, organism-based. On the set-up: dose 10 mg/kg, route oral. The note with it: in vivo.
Data set [7] has as its system Plasmodium yoelii. Kind of data set: Antimalarial activity against chloroquine-resistant Plasmodium yoelii N-67 infected in Swiss mouse assessed as cured animal at 50 mg/kg, ip qd for 4 days measured on day 28 post infection relative to control. In kind it is functional.
Data set [8] relates to Plasmodium yoelii. As to the kind of experiment: Antimalarial activity against chloroquine-resistant Plasmodium yoelii N-67 infected in Swiss mouse assessed as cured animal at 100 mg/kg, po for 4 days measured on day 28 post infection relative to control. In kind it is functional.
The test system of data set [9] is Plasmodium falciparum. Kind of data set: Resistance index, ratio of IC50 for chloroquine-resistant Plasmodium falciparum K1 to IC50 for chloroquine-sensitive Plasmodium falciparum 3D7. The data set is classed as functional.
Data set [10] is described as follows: Cmax in Sprague-Dawley rat at 10 mg/kg, po. The data set is classed as ADME, organism-based. The note with it: in vivo. On the set-up: dose 10 mg/kg, route oral.
Data set [11] relates to Plasmodium yoelii. As to the kind of experiment: Antimalarial activity against chloroquine-resistant Plasmodium yoelii N-67 infected in Swiss mouse assessed as mouse survival at 50 mg/kg, ip qd for 4 days measured on day 28 post infection relative to control. The data set is classed as functional.
Data set [12] relates to Plasmodium yoelii. As to the kind of experiment: Antimalarial activity against chloroquine-resistant Plasmodium yoelii N-67 infected in Swiss mouse assessed as mouse survival at 100 mg/kg, po qd for 4 days measured on day 28 post infection relative to control. The data set is classed as functional.
Data set [13] concerns Plasmodium yoelii. As to the kind of experiment: Antimalarial activity against chloroquine-resistant Plasmodium yoelii N-67 infected in Swiss mouse assessed as suppression of parasitaemia level at 50 mg/kg, ip qd for 4 days relative to control. In kind it is functional. The note with it: route intraperitoneal.
A further data set has as its system Plasma. Kind of data set: Inhibition of beta-hematin formation in Plasmodium yoelii-infected Swiss albino mouse plasma using hemin as substrate after 16 hrs. The data set is classed as functional, cell-free.
Data set [14] can be described thus: Elimination half life in Sprague-Dawley rat at 10 mg/kg, po. The data set is classed as ADME, organism-based. On the set-up: dose 10 mg/kg, route oral. The note with it: in vivo, read-out: beta t1/2 (converted).
Data set [15] concerns Plasmodium yoelii. Kind of data set: Antimalarial activity against chloroquine-resistant Plasmodium yoelii N-67 infected in Swiss mouse assessed as suppression of parasitaemia level at 100 mg/kg, po qd for 4 days relative to control. In kind it is functional.
In data set [16] the test system is Plasmodium yoelii. As to the kind of experiment: Antimalarial activity against chloroquine-resistant Plasmodium yoelii N-67 infected in Swiss mouse assessed as mean survival time at 100 mg/kg, po qd for 4 days. In kind it is functional.
The test system of data set [17] is Plasmodium falciparum. As to the kind of experiment: Antimalarial activity against chloroquine-sensitive Plasmodium falciparum 3D7 after 72 hrs by MSF assay. The data set is classed as functional, organism-based. The note with it: 3D7, 72 h.
Data set [18] is described as follows: Selectivity index, ratio of CC50 for African green monkey Vero cells to IC50 for Plasmodium falciparum. In kind it is functional.
The subject of data set [19] is Plasmodium yoelii. As to the kind of experiment: Antimalarial activity against chloroquine-resistant Plasmodium yoelii N-67 infected in Swiss mouse assessed as mouse survival at 10 mg/kg, ip qd for 4 days measured on day 28 post infection. In kind it is functional, organism-based. On the set-up: dose 10 mg/kg.
Data set [20] has as its system Rattus norvegicus. As to the kind of experiment: AUC (0 to t) in Sprague-Dawley rat at 5 mg/kg, po. The note with it: in vivo. On the set-up: dose 5 mg/kg, route oral. The data set is classed as ADME, organism-based, Plasma.
The subject of data set [21] is Rattus norvegicus. Kind of data set: Tmax in Sprague-Dawley rat at 5 mg/kg, po. In kind it is ADME, organism-based. On the set-up: dose 5 mg/kg, route oral. The note with it: in vivo.
In data set [22] the test system is Rattus norvegicus. Kind of data set: Elimination half life in Sprague-Dawley rat at 5 mg/kg, po. In kind it is ADME, organism-based. On the set-up: dose 5 mg/kg, route oral. The note with it: in vivo.
Data set [23] has as its system Plasmodium yoelii. Kind of data set: Antimalarial activity against chloroquine-resistant Plasmodium yoelii N-67 infected in Swiss mouse assessed as cured animal at 10 mg/kg, po for 4 days measured on day 28 post infection. In kind it is functional, organism-based. On the set-up: dose 10 mg/kg.
The subject of data set [24] is Rattus norvegicus. Kind of data set: Volume of distribution in Sprague-Dawley rat at 5 mg/kg, po. The data set is classed as ADME, organism-based. On the set-up: dose 5 mg/kg, route oral. The note with it: in vivo.
Data set [25] in a line: Clearance in Sprague-Dawley rat at 5 mg/kg, po. The data set is classed as ADME, organism-based. On the set-up: dose 5 mg/kg, route oral. The note with it: in vivo.
The subject of data set [26] is Plasmodium yoelii. Kind of data set: Antimalarial activity against chloroquine-resistant Plasmodium yoelii N-67 infected in Swiss mouse assessed as mean survival time at 10 mg/kg, po for 4 days. The data set is classed as functional.
Data set [27] deals with Plasmodium falciparum. Kind of data set: Ratio of chloroquine IC50 to compound IC50 for chloroquine-resistant Plasmodium falciparum K1. In kind it is functional.

Four molecules from ChEMBL document CHEMBL2413038, “Synthesis and bioevaluation of novel 4-aminoquinoline-tetrazole derivatives as potent antimalarial agents” (Eur J Med Chem, 2013) can be followed below.

Values after ≈ are worked out from the molar mass of the structure shown. Active and inactive are the calls of the source. The calls are words filed in the database; no cut-off is given here.

As a reminder, the AUC(0-t) is exposure summed from dosing to a finite time, without extrapolation to infinity. For orientation: Tmax means the time at which the peak concentration occurs. Broadly, the IC50 is the point on the concentration scale where inhibition reaches its midpoint. A word on the CL/F: it is clearance divided by bioavailability, as obtained after extravascular dosing. Usually Cmax stands for the maximum level reached in the sampled fluid or tissue.

As for `CC(C)(C)n1nnnc1C(Nc1ccc(Nc2ccnc3cc(Cl)ccc23)cc1)c1ccc(Cl)cc1` (stereo unspecified), the AUC(0-t) in data set [1] was found to be 593 ng·h/mL. The Tmax in [2] came to 2 h. In the data set with Rattus norvegicus [3], this molecule had a Vd of 28.16 L. Moreover, the figures for the MST in the data set with Plasmodium yoelii [4] and with Plasmodium yoelii [16] were 23.6 days and 25.2 days, respectively. The results for the half-maximal inhibitory concentration (IC50) in the data set with Plasmodium falciparum [5], with Plasma and in the data set with Plasmodium falciparum [17] were 0.143 µM, 5.29 µg/mL (≈ 10.2 µM) and 0.0107 µM, respectively. In addition, in data set [6], the apparent clearance (CL/F) is 61.7 mL/min. Besides, the Activity in the data set on Plasmodium yoelii [7] (route intraperitoneal) is on record as 60%; in the data set on Plasmodium yoelii [8] it was 60%; with Plasmodium yoelii [11] (route intraperitoneal) it was 60%; in the data set on Plasmodium yoelii [12], 60%; in the data set on Plasmodium yoelii [13], 99.99%; in the data set on Plasmodium yoelii [15], 99.99%. The “Ratio IC50” value in the data set on Plasmodium falciparum [9] is recorded as 13.4. The molecule further returned a Cmax in data set [10] of 49.2 ng/mL. Also, the inhibition result with Plasma is “Dose-dependent effect”. Moreover, in data set [14], the half-life was 5.27 h. Further, the “Ratio CC50/IC50” value in data set [18] is listed as 4616.14.
As to `CCN(CC)CCCC(C)Nc1ccnc2cc(Cl)ccc12` (stereo unspecified) [CHLOROQUINE], the outcome with Plasmodium yoelii [19] and with Plasmodium yoelii [23] was inactive. Moreover, in the data set with Rattus norvegicus [20], the AUCt is 30.147 ng·h/mL. The Tmax in the data set on Rattus norvegicus [21] came out at 0.91 h. In addition, the “beta t1/2” value with Rattus norvegicus [22] stood at 9.5 h. The half-inhibitory concentration (IC50) in the data set with Plasma is 3.95 µg/mL (≈ 12.3 µM). Moreover, in the data set with Plasma, the inhibition entry was “Dose-dependent effect”. Further, in the data set on Rattus norvegicus [24], the Vd was 1.49 L. In data set [25], this molecule had a CL/F of 2.5 mL/min. Moreover, in the data set on Plasmodium yoelii [26], the MST was determined as 16.5 days.
On to `CC(C)(C)n1nnnc1C(Nc1ccc(Nc2ccnc3cc(Cl)ccc23)cc1)c1cccc2ccccc12` (stereo unspecified), for which, in the data set with Plasmodium yoelii [4], the MST was 12 days. Also, the IC50 in the data set with Plasmodium falciparum [5] stood at 0.0778 µM; with Plasma it was 5.12 µg/mL (≈ 9.59 µM); with Plasmodium falciparum [17] it was 0.028 µM. The results for the “Ratio IC50” value in the data set with Plasmodium falciparum [27] and in the data set with Plasmodium falciparum [9] were 3.38 and 2.7, respectively. In addition, the outcome with Plasmodium yoelii [7] and in the data set on Plasmodium yoelii [11] was inactive. For the same molecule, the Activity with Plasmodium yoelii [13] is given as 57.03%. Moreover, in the data set on Plasma, the inhibition entry was “Dose-dependent effect”. In [18], the “Ratio CC50/IC50” value is on record as 3815.38.
For `CC(C)(C)n1nnnc1C(Nc1ccc(Nc2ccnc3cc(Cl)ccc23)cc1)c1ccc(Br)cc1` (stereo unspecified), the AUC(0-t) in data set [1] worked out at 704 ng·h/mL. For the same molecule, the time to peak (Tmax) in data set [2] is 1.5 h. Moreover, the Vd in the data set with Rattus norvegicus [3] came out at 63.38 L. The figures for the MST in the data set with Plasmodium yoelii [4] and in the data set on Plasmodium yoelii [16] were 26 days and 25.6 days, respectively. Besides, the IC50 in the data set on Plasmodium falciparum [5] was 0.234 µM; in the data set on Plasma it was 5.65 µg/mL (≈ 10 µM); in the data set with Plasmodium falciparum [17], 0.0118 µM. This molecule had a CL/F in data set [6] of 32.3 mL/min. Besides, the Activity in the data set with Plasmodium yoelii [7] (route intraperitoneal) is 60%; with Plasmodium yoelii [8], 40%; in the data set with Plasmodium yoelii [11] (route intraperitoneal), 80%; with Plasmodium yoelii [12], 60%; in the data set with Plasmodium yoelii [13], 99.99%; in the data set with Plasmodium yoelii [15], 99.99%. Besides, in the data set with Plasmodium falciparum [9], the “Ratio IC50” value is listed as 19.8. The highest level in data set [10] (Cmax) was 44.4 ng/mL. Moreover, the inhibition entry with Plasma was “Dose-dependent effect”. For the same molecule, in [14], the half-life was 22.6 h. For the same molecule, the “Ratio CC50/IC50” value in [18] came to 2332.43.
